Data reported in patent publication US4217274A, “Methoxyethoxymethyl esters of penicillins” (Bristol-Myers Company, priority 1978, dated 1980).
Values after ≈ are worked out from the molar mass of the structure shown. Like-named read-outs stand apart in the source and are kept apart here.

Key:
[1] = test system: E. Coli; experiment: MIC, antibiotic dilution technique (agar); type: cell-based; details: Escherichia coli
Excerpt: (§1) Bacteria. The organisms, preponderantly of recent clinical origin, were obtained from numerous sources of broad geographical distribution. Obligate anaerobes were maintained in Egg Meat Medium (Difco); Mycobacterium was stored on Lowenstein Medium (Jensen Modification; Difco). The techniques of storing all other organisms have been described previously [Leitner et al., BL-S640, A Cephalosporin with a Broad Spectrum of Antibacterial Activity: Properties in vitro, Antimicrob. Agents Chemother., 7, 298-305 (1975)].
(§2) Antibiotic spectrum. The growth-inhibitory activity of the compounds was determined by the antibiotic dilution technique. Procedures were as follows:
(§3) Aerobic organisms (excluding Mycobacterium). Except for Haemophilus and Neisseria, the assay was performed in Mueller-Hinton Medium (Difco). For fastidious organisms, i.e., Streptococcus, Listeria, Pasteurella, Bordetella and Vibrio, the medium was supplemented with 4% defibrinated sheep blood. The antibiotic susceptibility of Haemophilus and Neisseria was determined in GC Medium Base (BBL) supplemented with 1% Hemoglobin (BBL) and 1% Isovitalex (BBL).
(§4) Overnight broth cultures of an exponentially growing culture (Neisseria) served as the source of inoculum. A volume of approximately 0.003 ml. of the undiluted or diluted culture was applied to the surface of the antibiotic-containing agar plates with the inoculator of Steers et al., An Inocula Replicating Apparatus for Routine Testing of Bacterial Susceptibility to Antibiotics, Antibiot. Chemother., 9, 307-311, (1959). Cultures of Neisseria, Streptococcus pneumoniae, S. viridans and S. pyogenes were used without dilution; those of all other organisms were diluted 100-fold. The inoculum contained about 10^3 viable cells for Neisseria, 10^5 for S. pneumoniae and S. pyogenes, 10^6 for S. viridans and 10^4 for all other species.

[2] = test system: Ser. marcescens; experiment: MIC, antibiotic dilution technique (agar); type: cell-based; details: Serratia marcescens
Excerpt: as §1, §2, §3, §4

[3] = test system: Pr. rettgeri; experiment: MIC, antibiotic dilution technique (agar); type: cell-based; details: Providencia rettgeri
Excerpt: as §1, §2, §3, §4

[4] = test system: Str. pneumoniae; experiment: MIC, antibiotic dilution technique (agar); type: cell-based; details: Streptococcus pneumoniae
Excerpt: as §1, §2, §3, §4

[5] = test system: Str. faecalis; experiment: MIC, antibiotic dilution technique (agar); type: cell-based; details: Enterococcus faecalis
Excerpt: as §1, §2, §3, §4

[6] = test system: S. aureus Meth-Res.; experiment: MIC, antibiotic dilution technique (agar); type: cell-based; details: Staphylococcus aureus
Excerpt: as §1, §2, §3, §4

[7] = test system: S. aureus Pen-Res.; experiment: MIC, antibiotic dilution technique (agar); type: cell-based; details: Staphylococcus aureus, read-out: MIC
Excerpt: as §1, §2, §3, §4

[8] = test system: Pr. vulgaris; experiment: MIC, antibiotic dilution technique (agar); type: cell-based; details: Proteus vulgaris
Excerpt: as §1, §2, §3, §4

[9] = test system: K. pneumoniae; experiment: MIC, antibiotic dilution technique (agar); type: cell-based; details: Klebsiella pneumoniae, read-out: MIC
Excerpt: as §1, §2, §3, §4

[10] = test system: Pr. mirabilis; experiment: MIC, antibiotic dilution technique (agar); type: cell-based; details: Proteus mirabilis
Excerpt: as §1, §2, §3, §4

[11] = test system: Ps. aeruginosa; experiment: MIC, antibiotic dilution technique (agar); type: cell-based; details: Pseudomonas aeruginosa, read-out: MIC
Excerpt: as §1, §2, §3, §4

[12] = test system: S. aureus; experiment: MIC, antibiotic dilution technique (agar); type: cell-based; details: Staphylococcus aureus
Excerpt: as §1, §2, §3, §4

[13] = test system: Ent. cloacae; experiment: MIC, antibiotic dilution technique (agar); type: cell-based; details: Enterobacter cloacae, read-out: MIC
Excerpt: as §1, §2, §3, §4

[14] = test system: Pr. morganii; experiment: MIC, antibiotic dilution technique (agar); type: cell-based; details: Morganella morganii, read-out: MIC
Excerpt: as §1, §2, §3, §4

[15] = test system: E. Coli; experiment: MIC, antibiotic dilution technique (agar), Table 4; type: cell-based; details: Escherichia coli
Excerpt: as §1, §2, §3, §4

[16] = test system: Streptococcus sp. (β-hemolytic); experiment: MIC, antibiotic dilution technique (agar), Table 4; type: cell-based; details: Table 4, 6 strains, geometric mean where applicable
Excerpt: as §1, §2, §3, §4

[17] = test system: S. pyogenes; experiment: MIC, antibiotic dilution technique (agar), Table 4; type: cell-based; details: Streptococcus pyogenes; Table 4, 6 strains, geometric mean where applicable
Excerpt: as §1, §2, §3, §4

[18] = test system: P. mirabilis; experiment: MIC, antibiotic dilution technique (agar), Table 4; type: cell-based; details: Proteus mirabilis, Table 4, P. mirabilis, geometric mean where applicable, read-out: MIC
Excerpt: as §1, §2, §3, §4

[19] = test system: S. faecalis; experiment: MIC, antibiotic dilution technique (agar), Table 4; type: cell-based; details: Enterococcus faecalis; Table 4, 6 strains, geometric mean where applicable
Excerpt: as §1, §2, §3, §4

[20] = test system: p. vulgaris; experiment: MIC, antibiotic dilution technique (agar), Table 4; type: cell-based; details: Proteus vulgaris; Table 4, 2 strains, geometric mean where applicable
Excerpt: as §1, §2, §3, §4

[21] = test system: K. pneumoniae; experiment: MIC, antibiotic dilution technique (agar), Table 4; type: cell-based; details: Klebsiella pneumoniae, Table 4, K. pneumoniae, read-out: MIC
Excerpt: as §1, §2, §3, §4

[22] = test system: S. aureus (lacking penase); experiment: MIC, antibiotic dilution technique (agar), Table 4; type: cell-based; details: Staphylococcus aureus; Table 4, 6 strains, geometric mean where applicable
Excerpt: as §1, §2, §3, §4

[23] = test system: P. rettgeri; experiment: MIC, antibiotic dilution technique (agar), Table 4; type: cell-based; details: Providencia rettgeri
Excerpt: as §1, §2, §3, §4

[24] = test system: E. cloacae; experiment: MIC, antibiotic dilution technique (agar), Table 4; type: cell-based; details: Enterobacter cloacae; Table 4, 2 strains, geometric mean where applicable
Excerpt: as §1, §2, §3, §4

[25] = test system: S. viridans; experiment: MIC, antibiotic dilution technique (agar), Table 4; type: cell-based; details: Streptococcus viridans
Excerpt: as §1, §2, §3, §4

[26] = test system: S. pneumoniae; experiment: MIC, antibiotic dilution technique (agar), Table 4; type: cell-based; details: Streptococcus pneumoniae; Table 4, 7 strains, geometric mean where applicable
Excerpt: as §1, §2, §3, §4

[27] = test system: S. marcescens; experiment: MIC, antibiotic dilution technique (agar), Table 4; type: cell-based
Excerpt: as §1, §2, §3, §4

[28] = test system: Str. pyogenes; experiment: MIC, antibiotic dilution technique (agar); type: cell-based, S. pyogenes; details: Streptococcus pyogenes
Excerpt: as §1, §2, §3, §4

## COCCOCOC(=O)[C@@H]1N2C(=O)[C@@H](N3C(=O)[C@@H](c4ccccc4)NC3(C)C)[C@H]2SC1(C)C [RN-1492, Methoxyethoxymethyl Ester of Hetacillin]
[1]; Table 1, E. Coli, first line
  MIC: 2 µg/mL (≈ 4.19 µM)
[1]; Table 1, E. Coli, second line
  MIC: 63 µg/mL (≈ 132 µM)
[2]; Table 1, Ser. marcescens
  MIC: 32 µg/mL (≈ 67 µM)
[3]; Table 1, Pr. rettgeri
  MIC: 16 µg/mL (≈ 33.5 µM)
[4]; Table 1, Str. pneumoniae
  MIC: 0.004 µg/mL (≈ 0.00838 µM)
[5]; Table 1, Str. faecalis
  MIC: 0.5 µg/mL (≈ 1.05 µM)
[6]; Table 1, S. aureus Meth-Res.
  MIC: 63 µg/mL (≈ 132 µM)
[7]; Table 1, S. aureus Pen-Res.
  MIC: > 125 µg/mL
[8]; Table 1, Pr. vulgaris
  MIC: 0.25 µg/mL (≈ 0.523 µM)
[9]; Table 1, K. pneumoniae, first line
  MIC: 63 µg/mL (≈ 132 µM)
[9]; Table 1, K. pneumoniae, second line
  MIC: 32 µg/mL (≈ 67 µM)
[10]; Table 1, Pr. mirabilis
  MIC: 0.25 µg/mL (≈ 0.523 µM)
[11]; Table 1, Ps. aeruginosa, first line
  MIC: 63 µg/mL (≈ 132 µM)
[11]; Table 1, Ps. aeruginosa, second line
  MIC: 125 µg/mL (≈ 262 µM)
[12]; Table 1, S. aureus
  MIC: 0.06 µg/mL (≈ 0.126 µM)
[12]; Table 1, S. aureus + 50% serum
  MIC: 0.13 µg/mL
[13]; Table 1, Ent. cloacae, first line
  MIC: 63 µg/mL (≈ 132 µM)
[13]; Table 1, Ent. cloacae, second line
  MIC: 63 µg/mL (≈ 132 µM)
[14]; Table 1, Pr. morganni
  MIC: 32 µg/mL (≈ 67 µM)
[15]; 1 strain (first line)
  MIC: 2 µg/mL (≈ 4.19 µM)
[15]; 1 strain (fourth line)
  MIC: > 125 µg/mL
[15]; 1 strain (third line)
  MIC: 63 µg/mL (≈ 132 µM)
[15]; 3 strains (second line), geometric mean where applicable
  MIC: 5 µg/mL (≈ 10.5 µM)
[16]
  MIC: 0.13 µg/mL (≈ 0.272 µM)
[17]
  MIC: 0.027 µg/mL (≈ 0.0565 µM)
[18]; 2 strains
  MIC: > 125 µg/mL
[18]; 4 strains
  MIC: 4 µg/mL (≈ 8.38 µM)
[19]
  MIC: 2 µg/mL (≈ 4.19 µM)
[20]
  MIC: 0.5 µg/mL (≈ 1.05 µM)
[21]; 1 strain (first line)
  MIC: 63 µg/mL (≈ 132 µM)
[21]; 1 strain (second line)
  MIC: > 125 µg/mL
[22]
  MIC: 0.18 µg/mL (≈ 0.377 µM)
[23]; Table 4, P. retgeri, 2 strains (third line), geometric mean where applicable
  MIC: 63 µg/mL (≈ 132 µM)
[23]; Table 4, P. rettgeri, 1 strain (first line)
  MIC: 0.25 µg/mL (≈ 0.523 µM)
[23]; Table 4, P. rettgeri, 1 strain (second line)
  MIC: 16 µg/mL (≈ 33.5 µM)
[24]
  MIC: > 125 µg/mL
[25]; Table 4, S. viridans, 1 strain (second line)
  MIC: 0.25 µg/mL (≈ 0.523 µM)
[25]; Table 4, S. viridans, 3 strains, geometric mean where applicable
  MIC: 0.05 µg/mL (≈ 0.105 µM)
[25]; Table 4, s. viridans, 1 strain (third line)
  MIC: 0.5 µg/mL (≈ 1.05 µM)
[26]
  MIC: 0.032 µg/mL (≈ 0.067 µM)
[27]; 1 strain (second line)
  MIC: > 125 µg/mL
[27]; Serratia marcescens, 1 strain (first line), read-out: MIC
  MIC: > 125 µg/mL
[28]; Table 1, Str. pyogenes
  MIC: 0.008 µg/mL (≈ 0.0168 µM)

## COCCOCOC(=O)[C@@H]1N2C(=O)[C@@H](N3C(=O)[C@@H](c4ccc(O)cc4)NC3(C)C)[C@H]2SC1(C)C [RN-1493, Methoxyethoxymethyl Ester of Heta-Amoxicillin]
[1]; Table 2, E. coli, first line
  MIC: 2 µg/mL (≈ 4.05 µM)
[1]; Table 2, E. coli, second line
  MIC: 63 µg/mL (≈ 128 µM)
[2]; Table 2, Ser. marcescens
  MIC: 32 µg/mL (≈ 64.8 µM)
[3]; Table 2, Pr. rettgeri
  MIC: 32 µg/mL (≈ 64.8 µM)
[4]; Table 2, Str. pneumoniae
  MIC: 0.004 µg/mL (≈ 0.0081 µM)
[5]; Table 2, Str. faecalis
  MIC: 0.5 µg/mL (≈ 1.01 µM)
[6]; Table 2, S. aureus Meth-Res.
  MIC: 63 µg/mL (≈ 128 µM)
[7]; Table 2, S. aureus Pen-Res.
  MIC: 125 µg/mL (≈ 253 µM)
[8]; Table 2, Pr. vulgaris
  MIC: 0.5 µg/mL (≈ 1.01 µM)
[9]; Table 2, K. pneumoniae, first line
  MIC: 63 µg/mL (≈ 128 µM)
[9]; Table 2, K. pneumoniae, second line
  MIC: 63 µg/mL (≈ 128 µM)
[10]; Table 2, Pr. mirabilis
  MIC: 0.5 µg/mL (≈ 1.01 µM)
[11]; Table 2, Ps. aeruginosa, first line
  MIC: 63 µg/mL (≈ 128 µM)
[11]; Table 2, Ps. aeruginosa, second line
  MIC: 63 µg/mL (≈ 128 µM)
[12]; Table 2, S. aureus
  MIC: 0.06 µg/mL (≈ 0.122 µM)
[12]; Table 2, S. aureus + 50% serum
  MIC: 0.25 µg/mL
[13]; Table 2, Ent. cloacae, first line
  MIC: 63 µg/mL (≈ 128 µM)
[13]; Table 2, Ent. cloacae, second line
  MIC: 63 µg/mL (≈ 128 µM)
[14]; Table 2, Pr. morganii
  MIC: 16 µg/mL (≈ 32.4 µM)
[28]; Table 2, Str. pyogenes
  MIC: 0.008 µg/mL (≈ 0.0162 µM)
